From patent US20220162215A1, “COMPOSITIONS AND METHODS OF USING THE SAME FOR TREATMENT OF NEURODEGENERATIVE AND MITOCHONDRIAL DISEASE” (MITOKININ, INC., priority 2019, published 2022)
In brackets after ≈: the same amount, converted by molar mass. Entries after “also recorded” stand apart in the source; their conditions may differ.

How the values were obtained:
[1] = In vivo summary, pharmacokinetics, rat
Method: (§1) Referring to Tables 8A-C below, an in vivo summary of EP-0035985 IV at 1 mg/kg (8A), PO 10 mg/kg (8B), and a tissue distribution, mouse (8C) is shown below.

[2] = In vivo pharmacokinetic properties (Table 7)
PINK1 [3] = biological target: T1, PINK1 (Homo sapiens, UniProt Q9BXM7); assay: PINK1 phosphorylation in HeLa cells (PhosTag gel electrophoresis); type: cell-based
T1 construct: for each cell type tested (HeLa-MKYP WT or PINK1^KO); endogenous in cells; host or cells: HeLa-MKYP (WT) / HeLa cells

[4] = test system: phospho-serine 129 synuclein (pS129); assay: Preformed α-syn amyloid fibril (PFF) primary neuron model; type: cell-based, mice
Method: Briefly, primary hippocampal neurons were derived and cultured following standard protocols. At DIV-7, the cultures were treated with PFFs. At DIV-10, the cultures began treatment with a Mitokinin compound or vehicle controls, such treatment continuing for the duration of the experiment. The cultures were fixed and stained for alpha synuclein, TUJ1, and MAP2 at DIV-14, and analysis performed by unbiased imaging on an ImageXpress Confocal microscope and quantified by Molecular Devices' MetaXpress software.

dOTC = assay: Ornithine carbamoyltransferase (dOTC) assay; type: cell-based
Description: The expression of a deletion mutant of dOTC yields Triton X-100 insoluble protein aggregates in the mitochondrial matrix. This misfolded protein expression is capable of recruiting PINK1/Parkin to mitochondria without depolarizing the inner mitochondrial membrane. Thus, without wishing to be bound by theory, it may represent a more physiological mechanism of PINK1 stabilization.
Here, HeLa cells stably expressing YFP parkin, containing doxycycline inducible expression of dOTC, were obtained. The cells were seeded at 20000 cells/well plus doxycycline (1 μg/mL) plus MTK on a 96-well plate. On Day 3, the cells were fixed and permeabilized and bound with OTC antibody. DAPI and cell mask were added. There was no wash off of dox. The results were imaged at 40×, non-confocal. 85-600 cells were analyzed per well. Each condition had 1-3 wells.

PINK1 [5] = biological target: T1, PINK1; assay: Human Phospho-Ubiquitin (pS65) ub2 assay (western blot, in vitro PINK1 kinase assay); type: cell-based; details: in the presence of 0.5 μM FO; FIG. 14
Method: Briefly, HeLa MKYP cells were plated at 1,300,000 cells/plate in 10 cm plates in 10 mL of medium containing compound at various concentrations. Following 16 hrs of incubation, cells were treated with 0.5 uM FCCP/oligomycin for 2 hours, then harvested. Mitochondria were then isolated according to published protocols (Ordureau et al, 2014; https://doi.org/10.1016/j.molcel.2014.09.007). Equal amounts of samples were loaded on 26 well gradient gels, and a western blot analysis was performed using commercially available antibodies for various markers, including […].

Solubility in 1× PBS = type: physicochemical
[6] = In vivo summary, pharmacokinetics, mouse
Method: as §1

[7] = in vivo, IV at 1 mg/kg, Table 8A
[8] = in vivo, PO 10 mg/kg, Table 8B, read-out: C0
[9] = three days of treatment with DOX and 50 μM

T1 sequence (Q9BXM7 78-581): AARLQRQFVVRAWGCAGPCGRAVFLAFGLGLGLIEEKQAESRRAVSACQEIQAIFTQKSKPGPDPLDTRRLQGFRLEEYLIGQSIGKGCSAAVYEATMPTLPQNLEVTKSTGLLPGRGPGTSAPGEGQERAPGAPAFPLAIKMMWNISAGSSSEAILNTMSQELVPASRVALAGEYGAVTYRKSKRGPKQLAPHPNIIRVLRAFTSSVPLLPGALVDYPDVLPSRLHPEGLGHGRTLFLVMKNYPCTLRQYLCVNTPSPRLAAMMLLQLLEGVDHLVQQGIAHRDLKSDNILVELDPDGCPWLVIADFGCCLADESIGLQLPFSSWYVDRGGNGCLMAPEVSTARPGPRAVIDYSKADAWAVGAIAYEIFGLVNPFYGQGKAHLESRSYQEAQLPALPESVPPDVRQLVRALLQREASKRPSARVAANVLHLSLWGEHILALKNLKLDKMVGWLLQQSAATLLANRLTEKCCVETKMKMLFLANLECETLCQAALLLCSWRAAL

Compound: FC(F)(F)c1cc2c(NC3CCCc4ccccc43)ncnc2[nH]1 (stereo not shown) [Compound 15]
- AUCExtr ([1]; IV at 1 mg/kg, Table 8A): 2.5%
- AUClast ([1]; IV at 1 mg/kg, Table 8A): 0.8375 µg·h/mL
- C0 ([1]; IV at 1 mg/kg, Table 8A): 1667.7 ng/mL
- CL ([1]; IV at 1 mg/kg, Table 8A): 1.17 L/h/kg
- MRTlnf ([1]; IV at 1 mg/kg, Table 8A): 2.0 h
- T1/2 ([1]; IV at 1 mg/kg, Table 8A): 3.6 h
- Vss ([1]; IV at 1 mg/kg, Table 8A): 2.4 L/kg
- Vz ([1]; IV at 1 mg/kg, Table 8A): 6.0 L/kg
- AUClast ([1]; PO 10 mg/kg, Table 8B): 0.6924 µg·h/mL
- MRTlnf ([1]; PO 10 mg/kg, Table 8B): 88.1 h
- Vss ([1]; PO 10 mg/kg, Table 8B): 7.9 L/kg
- AUC [1, 7]: 0.838 µg·h/mL
- AUC ([1]; in vivo, PO 10 mg/kg, Table 8B): 7.35 µg·h/mL
- C0 [1, 8]: 2.6 ng/mL
- AUC (obs) ([2]; IV (1 mg/kg)): 1400 nM·h
- Cmax ([2]; IV (1 mg/kg)): 1.45 µM
- Cmax ([2]; PO (10 mg/kg)): 1.08 µM
- F % ([2]; PO (10 mg/kg)): 17.4%
- AUC (obs) ([2]; PO (50 mg/kg)): 27400 nM·h
- Cmax ([2]; PO (50 mg/kg)): 9.8 µM
- F % ([2]; PO (50 mg/kg)): 37.9%
- T1/2 ([2]; PO (50 mg/kg)): 3.9 h
- bioavailability ([2]; in vivo dosing, FIG. 23 and Table 7): good bioavailability
- AUC(0-inf) ([2]; mouse, in vivo, IV (1 mg/kg)): 1500 nM·h
- half-life ([2]; mouse, in vivo, IV (1 mg/kg)): 1.4 h
- AUC ([2]; mouse, in vivo, PO (10 mg/kg)): 2400 nM·h
- AUC(0-inf) ([2]; mouse, in vivo, PO (10 mg/kg)): 2600 nM·h
- half-life ([2]; mouse, in vivo, PO (10 mg/kg)): 2 h
- AUC(0-inf) ([2]; mouse, in vivo, PO (50 mg/kg)): 35500 nM·h
- pS65 Ubiquitin (PINK1 [3]; 0.5, 1 μM FCCP, FIG. 33C): significant increase in pS65 Ubiquitin at 0.5, 1 μM FCCP
- levels of PINK1phospho (PINK1 [3]; HeLa cells, 2.8 μM compound and 0.5, 1.0, or 2.0 μM FCCP, FIG. 33A): significantly increases the levels of PINK1phospho
- EC50 ([4]; FIG. 22A, 22B, read-out: EC50 of decrease of pS129 synuclein increase driven by PFF addition): 0.981 µM
- pS129 synuclein in PINK1ko cell lines ([4]; PINK1ko, FIG. 22C): does not decrease pS129 synuclein in PINK1^ko cell lines
- dOTC proteins / delta OTC aggregates (dOTC; induced by doxycycline, FIG. 16, FIG. 20, listed as EP-0035985): able to reduce the accumulated dOTC proteins; also recorded: reduces delta OTC aggregates from mitochondria
- OTC signal (dOTC; [9]): very effective at reducing OTC signal
- cell counts (dOTC; [9]): cell counts were lower
- pS65 Ub signal (PINK1 [5]): increases the pS65 Ub signal
- solubility (Solubility in 1× PBS): 1 µM (≈ 0.332 µg/mL)
- AUCExtr ([6]; IV at 1 mg/kg, Table 8A): 1.1%
- AUClast ([6]; IV at 1 mg/kg, Table 8A): 0.4813 µg·h/mL
- C0 ([6]; IV at 1 mg/kg, Table 8A): 1569.0 ng/mL
- CL ([6]; IV at 1 mg/kg, Table 8A): 2.06 L/h/kg
- MRTlnf ([6]; IV at 1 mg/kg, Table 8A): 0.7 h
- T1/2 ([6]; IV at 1 mg/kg, Table 8A): 1.4 h
- Vss ([6]; IV at 1 mg/kg, Table 8A): 1.5 L/kg
- Vz ([6]; IV at 1 mg/kg, Table 8A): 4.0 L/kg
- AUClast ([6]; PO 10 mg/kg, Table 8B): 0.3573 µg·h/mL
- AUClnf ([6]; PO 10 mg/kg, Table 8B): 0.8033 µg·h/mL
- MRTlnf ([6]; PO 10 mg/kg, Table 8B): 17.4 h
- Vss ([6]; PO 10 mg/kg, Table 8B): 2.5 L/kg
- AUC [6, 7]: 0.487 µg·h/mL
- C0 [6, 8]: 0.5 ng/mL
